Measurements taken from patent publication US20130004516A1, “DRUG FOR INFLAMMATORY BOWEL DISEASE” (DAINIPPON SUMITOMO PHARMA CO., LTD., priority 2010, published 2013).

Test system: mouse model of relapse-remitting type ulcerative colitis
Assay: Ulcer score of the large intestine in the mouse model of colitis induced by 1% DSS (Example 1)
Type: in vivo
Conditions: day of completion; score 1 = ulcer of 1 mm^2 or larger; antibodies 0.5 mg/mouse intraperitoneally once; sulfasalazine 200 mg/kg orally once a day
Procedure: An aqueous solution of dextran sulfate (DSS) was administered to a mouse to induce relapse-remitting type ulcerative colitis. To this mouse model of relapse-remitting type ulcerative colitis, an anti-CD81 antibody was administered once and a relapse (recurrence)-inhibitory effect of single-dose administration of an anti-CD81 antibody on ulcerative colitis was examined by comparing with single-dose administration of an anti-TNF-α antibody and multiple-dose administration of sulfasalazine, both of which are the existing therapeutic agents.
Dextran sulfate (the product of TdB consultancy AB, an average molecular weight of 47,000) was dissolved in drinking water to prepare a 1% aqueous solution. […]
Four-week-old mice (BALB/cAnNCrj, male, the product of Charles River Laboratories Japan, Inc.) were purchased, and the mice in which no abnormality was found after six days of quarantine rearing were measured for body weight and then divided into six groups, where one group contained 10 mice. […]
On the day of completion of the experiment, 0.1 ml of a 2.5% brilliant blue 6B solution was administered to all groups of mice via tail vein. […] Subsequently, the large intestine was thoroughly washed with an ethanol solution and the size of ulcer was measured. […]

O=C(O)c1cc(/N=N/c2ccc(S(=O)(=O)Nc3ccccn3)cc2)ccc1O [Sulfasalazine, sulfasalazine]
Ulcer score: 0.1
